The values that follow come from patent publication US10899732B2, “Substituted benzamides useful as sodium channel blockers” (GENENTECH, INC., priority 2015, dated 2021).

Structures can show the parent of a compound that is named as a salt.

For data set [1], the target named is T1, NaV1.5 (Homo sapiens, UniProt Q14524).
T1 construct: expression vector containing the full-length cDNA coding for the desired human sodium channel α-subunit; expressed in transfected cells; host or cells: HEK-293
Nature of the data set: Patch voltage clamp electrophysiology assay (EP), NaV1.5 in HEK-293 cells. It is filed as cell-based. Conditions: HEK-293, β1 coexpressed, held at -60 mV (inactivated state). The text has this: (§1) Electrophysiological Assay (EP) (In Vitro Assay)
(§2) Patch voltage clamp electrophysiology allows for the direct measurement and quantification of block of voltage-gated sodium channels (NaV's), and allows the determination of the time- and voltage-dependence of block which has been interpreted as differential binding to the resting, open, and inactivated states of the sodium channel (Hille, B., Journal of General Physiology (1977), 69: 497-515).
(§3) The following patch voltage clamp electrophysiology studies were performed on representative compounds of the invention using human embryonic kidney cells (HEK), permanently transfected with an expression vector containing the full-length cDNA coding for the desired human sodium channel α-subunit, grown in culture media containing 10% FBS, 1% PSG, and 0.5 mg/mL G418 at 37° C. with 5% CO2. […] NaV1.7 and NaV1.5 cDNAs (NM_002977 and AC137587; SCN5A, respectively) were stably expressed in HEK-293 cells. The β1 subunit was coexpressed in both the NaV1.7 and NaV1.5 cell lines.
(§4) Sodium currents were measured using the patch clamp technique in the whole-cell configuration using either a PatchXpress automated voltage clamp or manually using an Axopatch 200B (Axon Instruments) or Model 2400 (A-M systems) amplifier. The manual voltage clamp protocol was as follows: Borosilicate glass micropipettes were fire-polished to a tip diameter yielding a resistance of 2-4 Mohms in the working solutions. The pipette was filled with a solution comprised of: 5 mM NaCl, 10 mM CsCl, 120 mM CsF, 0.1 mM CaCl2, 2 mM MgCl2, 10 mM HEPES, 10 mM EGTA; and adjusted to pH 7.2 with CsOH. The external solution had the following composition: 140 mM NaCl, 5 mM KCl, 2 mM CaCl2, 1 mM MgCl2, 10 mM HEPES; and adjusted to pH 7.4 with NaOH. In some studies, the external sodium was reduced by equimolar replacement with choline. Osmolarity in the CsF internal and NaCl external solutions was adjusted to 300 mOsm/kg and 310 mOsm/kg with glucose, respectively. All recordings were performed at ambient temperature in a bath chamber with a volume of 150 μL. Control sodium currents were measured in 0.5% DMSO. Controls and representative compounds of the invention were applied to the recording chamber through a 4-pinch or 8-pinch valve bath perfusion system manufactured by ALA Scientific Instruments.
(§5) Currents were recorded at 40 kHz sampling frequency, filtered at […], and stored using a Digidata-1322A analogue/digital interface with the pClamp software (Axon Instruments). Series resistance compensation was applied (60-80%). […] All statistics in this study are given as mean±SD.
(§6) The membrane potential was maintained at a voltage where inactivation of the channel is complete (which was −60 mV for both NaV1.7 and NaV1.5). The voltage is then stepped back to a very negative (Vhold=[…]) voltage for 20 ms and then a test pulse is applied to quantify the compound block. The 20 ms brief repolarization was long enough for compound-free channels to completely recover from fast inactivation, but the compound-bound channels recovered more slowly such that negligible recovery could occur during this interval. The percent decrease in sodium current following wash-on of compound was taken as the percent block of sodium channels.

In data set [2] the target is T2, NaV1.7 (Homo sapiens, UniProt Q15858).
T2 construct: expression vector containing the full-length cDNA coding for the desired human sodium channel α-subunit; expressed in transfected cells; host or cells: HEK-293
Nature of the data set: Patch voltage clamp electrophysiology assay (EP), NaV1.7 in HEK-293 cells. Type of data set: cell-based. Conditions: HEK-293, β1 coexpressed, held at -60 mV (inactivated state).
Text: as §1, §2, §3, §4, §5, §6

The target of data set [3] is T3, hNav1.7 (Homo sapiens, UniProt Q15858).
T3 construct: expressed in transfected cells
Nature of the data set: Tritiated sulfonamide competitive binding to membranes from cells expressing hNav1.7 and the β1 subunit (LBA). To be noted: competition with 100 pM [3H]compound, 18 h, room temperature; read-out: Nav1.7 (LBA). As to the method: Tritiated Sulfonamide Binding to Membranes Isolated from Cells that Heterologously Express hNav1.7 and the β1 Subunit
Preparation of membranes containing recombinantly expressed sodium channels: Frozen recombinant cell pellets were thawed on ice and diluted to 4 times the cell pellet weight with ice cold 50 mM Tris HCl, pH 7.4 buffer. The cell suspensions were homogenized on ice using a motorized glass dounce homogenizer. Homogenates were further diluted 8.4 times with ice cold 50 mM Tris HCl, pH 7.4 buffer and then centrifuged at 200×g at 4° C. for 15 min. The supernatants were collected and centrifuged at 10000×g at 4° C. for 50 min. The pellets were then re-suspended in 100 mM NaCl, 20 mM Tris HCl, pH 7.4 buffer containing 1% v/v protease inhibitors (Calbiochem) and re-homogenized on ice. The homogenized membranes were then processed through a syringe equipped with a 26 gauge needle. Protein concentrations were determined by Bradford Assay and the membranes were stored at −80° C.
Saturation experiments. A competitive NaV1.7 inhibitor having a methyl group was tritiated. Three tritiums were incorporated in place of methyl hydrogens to generate [^3H]compound. Binding of this radioligand was preformed in 5 mL borosilicate glass test tubes at room temperature. Binding was initiated by adding membranes to increasing concentrations of [^3H]compound in 100 mM NaCl, 20 mM Tris HCl, pH 7.4 buffer containing 0.01% w/v bovine serum albumin (BSA) for 18 h. Non-specific binding was determined in the presence of 1 μM unlabelled compound. After 18 h, the reactants were filtered through GF/C glass fiber filters presoaked in 0.5% w/v polyethylene imine. Filters were washed with 15 mL ice cold 100 mM NaCl, 20 mM Tris HCl, pH 7.4 buffer containing 0.25% BSA to separate bound from free ligand. [^3H]compound bound to filters was quantified by liquid scintillation counting.
Binding reactions were performed in 96-well polypropylene plates at room temperature for 18 h. In 360 μL, membranes were incubated with 100 pM [^3H]compound and increasing concentrations of Test Compound. Non-specific binding was defined in the presence of 1 μM unlabelled compound. Reactions were transferred and filtered through 96-well glass fiber/C filter plates presoaked with 0.5% polyethylene imine. The filtered reactions were washed 5 times with 200 μL ice cold buffer containing 0.25% BSA. Bound radioactivity was determined by liquid scintillation counting.
Data Analysis: For saturation experiments, non-specific binding was subtracted from total binding to provide specific binding and these values were recalculated in terms of pmol ligand bound per mg protein. Saturation curves were constructed and dissociation constants were calculated using the single site ligand binding model: Beq=(Bmax*X)/(X+Kd), where Beq is the amount of ligand bound at equilibrium, Bmax is the maximum receptor density, Kd is the dissociation constant for the ligand, and X is the free ligand concentration. For competition studies percent inhibition was determined and IC50 values were calculated using a 4 parameter logistic model (% inhibition=(A+((B−A)/(1+((x/C)^D)))) using XLfit, where A and B are the maximal and minimum inhibition respectively, C is the IC50 concentration and D is the (Hill) slope.

T2 sequence (Q15858 1-1977 isoform Q15858-3): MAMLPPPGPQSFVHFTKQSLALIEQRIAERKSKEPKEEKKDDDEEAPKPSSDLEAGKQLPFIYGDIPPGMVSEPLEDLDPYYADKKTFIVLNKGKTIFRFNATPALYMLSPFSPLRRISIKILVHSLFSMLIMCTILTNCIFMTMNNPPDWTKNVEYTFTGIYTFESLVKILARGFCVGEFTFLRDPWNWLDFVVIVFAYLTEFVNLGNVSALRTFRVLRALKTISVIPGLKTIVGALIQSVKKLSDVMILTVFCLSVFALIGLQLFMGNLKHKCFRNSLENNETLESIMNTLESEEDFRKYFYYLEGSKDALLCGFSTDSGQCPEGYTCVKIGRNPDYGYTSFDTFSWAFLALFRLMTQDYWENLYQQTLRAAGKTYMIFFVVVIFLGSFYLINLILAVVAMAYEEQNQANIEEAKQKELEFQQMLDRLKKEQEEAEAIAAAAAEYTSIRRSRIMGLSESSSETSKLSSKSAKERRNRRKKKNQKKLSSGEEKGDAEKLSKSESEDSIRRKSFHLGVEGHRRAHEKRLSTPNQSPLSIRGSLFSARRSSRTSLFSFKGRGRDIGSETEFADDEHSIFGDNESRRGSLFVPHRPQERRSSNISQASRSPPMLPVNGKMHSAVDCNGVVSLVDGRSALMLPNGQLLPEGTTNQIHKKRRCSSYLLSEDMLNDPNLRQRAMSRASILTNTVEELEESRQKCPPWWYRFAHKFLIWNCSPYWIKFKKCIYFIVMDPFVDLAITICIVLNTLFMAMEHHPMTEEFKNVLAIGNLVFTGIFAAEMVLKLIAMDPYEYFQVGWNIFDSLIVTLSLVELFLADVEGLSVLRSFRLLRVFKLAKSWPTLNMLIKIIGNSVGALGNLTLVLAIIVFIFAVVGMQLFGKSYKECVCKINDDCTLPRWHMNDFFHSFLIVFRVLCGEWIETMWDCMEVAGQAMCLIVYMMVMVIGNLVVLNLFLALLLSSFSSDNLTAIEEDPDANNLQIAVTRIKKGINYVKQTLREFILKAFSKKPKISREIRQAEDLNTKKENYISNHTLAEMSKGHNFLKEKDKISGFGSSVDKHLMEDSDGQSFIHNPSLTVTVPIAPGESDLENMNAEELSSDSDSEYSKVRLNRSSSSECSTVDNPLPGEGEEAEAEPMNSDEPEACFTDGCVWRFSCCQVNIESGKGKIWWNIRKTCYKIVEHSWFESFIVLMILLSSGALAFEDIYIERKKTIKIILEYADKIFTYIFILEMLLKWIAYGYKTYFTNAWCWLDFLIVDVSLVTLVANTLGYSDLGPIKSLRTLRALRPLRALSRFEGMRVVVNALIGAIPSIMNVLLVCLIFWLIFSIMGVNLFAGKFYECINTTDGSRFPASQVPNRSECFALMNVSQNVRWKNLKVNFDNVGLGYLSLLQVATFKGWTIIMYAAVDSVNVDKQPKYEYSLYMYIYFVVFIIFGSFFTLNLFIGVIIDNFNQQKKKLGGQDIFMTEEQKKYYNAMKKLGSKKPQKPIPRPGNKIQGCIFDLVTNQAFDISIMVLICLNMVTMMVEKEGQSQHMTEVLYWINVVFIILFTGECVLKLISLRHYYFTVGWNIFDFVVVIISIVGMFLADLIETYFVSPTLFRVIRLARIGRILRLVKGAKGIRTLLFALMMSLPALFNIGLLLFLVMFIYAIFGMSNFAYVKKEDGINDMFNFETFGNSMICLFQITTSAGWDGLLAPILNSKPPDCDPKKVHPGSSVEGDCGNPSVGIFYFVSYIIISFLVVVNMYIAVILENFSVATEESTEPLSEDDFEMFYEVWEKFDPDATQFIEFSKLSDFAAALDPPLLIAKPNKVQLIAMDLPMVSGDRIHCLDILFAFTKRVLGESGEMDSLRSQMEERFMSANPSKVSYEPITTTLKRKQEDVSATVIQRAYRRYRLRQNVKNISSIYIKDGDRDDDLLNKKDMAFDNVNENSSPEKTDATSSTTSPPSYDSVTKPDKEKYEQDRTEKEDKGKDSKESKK
T2 sequence (Q07699 19-218 partner): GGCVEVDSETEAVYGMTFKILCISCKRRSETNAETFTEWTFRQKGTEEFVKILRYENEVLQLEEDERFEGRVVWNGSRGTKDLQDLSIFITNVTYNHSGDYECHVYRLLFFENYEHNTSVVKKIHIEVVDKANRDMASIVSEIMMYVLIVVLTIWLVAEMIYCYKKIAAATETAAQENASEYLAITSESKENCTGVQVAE
T3 sequence (Q15858 1-1977 isoform Q15858-3): as the sequence (Q15858 1-1977 isoform Q15858-3) above
T3 sequence (Q07699 19-218 partner): as the sequence (Q07699 19-218 partner) above
T1 sequence (Q14524 whole entry): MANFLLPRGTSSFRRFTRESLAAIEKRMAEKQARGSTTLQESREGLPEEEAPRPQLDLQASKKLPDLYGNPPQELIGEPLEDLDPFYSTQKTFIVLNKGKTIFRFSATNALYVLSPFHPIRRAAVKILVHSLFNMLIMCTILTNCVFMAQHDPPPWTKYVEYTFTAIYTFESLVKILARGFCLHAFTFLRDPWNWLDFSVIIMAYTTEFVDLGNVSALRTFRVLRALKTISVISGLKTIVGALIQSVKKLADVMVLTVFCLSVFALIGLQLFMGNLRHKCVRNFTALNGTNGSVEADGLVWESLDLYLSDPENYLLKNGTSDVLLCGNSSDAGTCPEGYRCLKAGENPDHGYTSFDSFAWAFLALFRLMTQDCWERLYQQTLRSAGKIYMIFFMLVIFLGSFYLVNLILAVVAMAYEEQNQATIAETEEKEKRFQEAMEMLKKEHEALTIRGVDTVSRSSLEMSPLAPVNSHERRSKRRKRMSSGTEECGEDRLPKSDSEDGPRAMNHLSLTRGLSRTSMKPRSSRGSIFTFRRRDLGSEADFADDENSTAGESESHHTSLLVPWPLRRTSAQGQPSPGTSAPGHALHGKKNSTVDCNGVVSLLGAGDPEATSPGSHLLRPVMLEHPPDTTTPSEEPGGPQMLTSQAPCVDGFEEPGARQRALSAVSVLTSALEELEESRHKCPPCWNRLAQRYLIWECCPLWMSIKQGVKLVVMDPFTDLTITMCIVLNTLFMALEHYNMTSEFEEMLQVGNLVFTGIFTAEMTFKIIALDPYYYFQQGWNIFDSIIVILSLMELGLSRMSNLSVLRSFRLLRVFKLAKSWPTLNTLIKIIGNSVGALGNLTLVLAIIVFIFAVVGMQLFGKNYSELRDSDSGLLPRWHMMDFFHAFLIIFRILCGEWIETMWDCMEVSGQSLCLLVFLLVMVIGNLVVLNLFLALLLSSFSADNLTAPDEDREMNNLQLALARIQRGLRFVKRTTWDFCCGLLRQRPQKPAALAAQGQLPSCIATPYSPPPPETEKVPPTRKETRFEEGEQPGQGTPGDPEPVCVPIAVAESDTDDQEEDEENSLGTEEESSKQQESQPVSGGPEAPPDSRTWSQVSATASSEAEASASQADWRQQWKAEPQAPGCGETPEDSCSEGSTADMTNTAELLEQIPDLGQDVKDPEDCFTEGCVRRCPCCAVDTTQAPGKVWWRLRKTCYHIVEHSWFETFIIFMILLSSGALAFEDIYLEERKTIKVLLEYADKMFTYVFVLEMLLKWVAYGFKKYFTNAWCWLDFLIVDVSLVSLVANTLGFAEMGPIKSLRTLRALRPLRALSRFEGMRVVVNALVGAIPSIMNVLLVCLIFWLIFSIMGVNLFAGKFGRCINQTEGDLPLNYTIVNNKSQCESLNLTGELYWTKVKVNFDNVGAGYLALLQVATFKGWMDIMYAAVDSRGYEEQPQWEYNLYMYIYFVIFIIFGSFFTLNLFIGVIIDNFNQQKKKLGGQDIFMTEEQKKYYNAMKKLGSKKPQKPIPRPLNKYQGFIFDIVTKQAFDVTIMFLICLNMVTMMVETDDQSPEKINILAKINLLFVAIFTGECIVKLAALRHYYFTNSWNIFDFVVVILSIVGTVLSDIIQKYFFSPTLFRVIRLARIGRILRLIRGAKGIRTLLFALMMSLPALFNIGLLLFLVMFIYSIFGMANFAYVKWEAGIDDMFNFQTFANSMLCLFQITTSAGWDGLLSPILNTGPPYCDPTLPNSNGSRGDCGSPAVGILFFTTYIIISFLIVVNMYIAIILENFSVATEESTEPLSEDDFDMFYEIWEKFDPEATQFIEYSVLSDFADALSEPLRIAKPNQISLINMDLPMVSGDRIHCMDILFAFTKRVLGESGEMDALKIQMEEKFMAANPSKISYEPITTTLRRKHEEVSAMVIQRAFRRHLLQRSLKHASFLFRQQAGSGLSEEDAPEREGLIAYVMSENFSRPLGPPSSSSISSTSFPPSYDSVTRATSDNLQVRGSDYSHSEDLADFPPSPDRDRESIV

For the compound `Cc1nn(C2CCN(Cc3cc(OC(F)(F)F)ccc3Br)CC2)c2cc(F)c(C(=O)NS(=O)(=O)C3CC3)cc12` [Example 7, 1-(1-(2-bromo-5-(trifluoromethoxy)benzyl)piperidin-4-yl)-N-(cyclopropylsulfonyl)-6-fluoro-3-methyl-1H-indazole-5-carboxamide 2,2,2-trifluoroacetate], the IC50 worked out at 630 nM in data set [1], 9 nM in data set [2] and 5 nM in data set [3].

With `Cc1nn(C2CCN([C@@H](C)c3cc(Cl)cc(Cl)c3)CC2)c2cc(F)c(C(=O)NS(=O)(=O)C3CC3)cc12` [Example 10, (S)-N-(cyclopropylsulfonyl)-1-(1-(1-(3,5-dichlorophenyl)ethyl)piperidin-4-yl)-6-fluoro-3-methyl-1H-indazole-5-carboxamide], the IC50 was 14000 nM in data set [1], 33 nM in data set [2] and 10 nM in data set [3].

Consider `Cc1nn(-c2cnc(OCC(C)C)c(Cl)c2)c2cc(F)c(C(=O)NS(C)(=O)=O)cc12` [Example 39, 1-(5-chloro-6-isobutbxypyridin-3-yl)-6-fluoro-3-methyl-N-(methylsulfonyl)-1H-indazole-5-carboxamide], for which the IC50 in data set [1] (human, pH 7.4) is not below 30000 nM; in data set [2], 39 nM; in data set [3], 8 nM.

As to `Cc1nn([C@@H]2CCN([C@H](C)c3cc(Cl)cc(Cl)c3)C2)c2cc(F)c(C(=O)NS(C)(=O)=O)cc12` [Example 16, 1-((R)-1-((R)-1-(3,5-dichlorophenyl)ethyl)pyrrolidin-3-yl)-6-fluoro-3-methyl-N-(methylsulfonyl)-1H-indazole-5-carboxamide, trifluoroacetic acid salt], the IC50 in data set [1] amounted to 13000 nM; in data set [2] it was 100 nM; in data set [3], 17 nM.

For the compound `Cc1nn([C@@H]2CCN(Cc3cc(Cl)ccc3C(F)(F)F)C2)c2cc(F)c(C(=O)NS(=O)(=O)C3CC3)cc12` [Example 12, (R)-1-(1-(5-chloro-2-(trifluoromethyl)benzyl)pyrrolidin-3-yl)-N-(cyclopropylsulfonyl)-6-fluoro-3-methyl-1H-indazole-5-carboxamide 2,2,2-trifluoroacetate], the IC50 came out at 510 nM in data set [1], 32 nM in data set [2] and 5 nM in data set [3].

`Cc1nn(C2CN(Cc3cc(Cl)cc(OC(F)(F)F)c3)C2)c2cc(F)c(C(=O)NS(=O)(=O)C3CC3)cc12` [Example 15, 1-(1-(3-chloro-5-(trifluoromethoxy)benzyl)azetidin-3-yl)-N-(cyclopropylsulfonyl)-6-fluoro-3-methyl-1H-indazole-5-carboxamide]: the IC50 came out at 3200 nM in data set [1], 88 nM in data set [2] and 11 nM in data set [3].

For the compound `Cc1nn(C2CN(Cc3cc(Cl)cc(OC(F)(F)F)c3)C2)c2cc(F)c(C(=O)NS(C)(=O)=O)cc12` [Example 14, 1-(1-(3-chloro-5-(trifluoromethoxy)benzyl)azetidin-3-yl)-6-fluoro-3-methyl-N-(methylsulfonyl)-1H-indazole-5-carboxamide], the figures for the IC50 in data set [1], in data set [2] and in data set [3] were 13000 nM, 400 nM and 32 nM, respectively.

On to `Cc1nn(C2CCN(Cc3cc(C(F)(F)F)cc(Cl)c3F)CC2)c2cc(F)c(C(=O)NS(=O)(=O)N3CCC3)cc12` [Example 3, N-(azetidin-1-ylsulfonyl)-1-(1-(3-chloro-2-fluoro-5-(trifluoromethyl)benzyl)piperidin-4-yl)-6-fluoro-3-methyl-1H-indazole-5-carboxamide 2,2,2-trifluoroacetate], for which the results for the IC50 in data set [1], in data set [2] and in data set [3] were 7400 nM, 250 nM and 33 nM, respectively.

For `Cc1nn(CC2CN(C(c3ccccc3)c3ccccc3)C2)c2cc(F)c(C(=O)NS(C)(=O)=O)cc12` [Example 23, 1-((1-benzhydrylazetidin-3-yl)methyl)-6-fluoro-3-methyl-N-(methylsulfonyl)-1H-indazole-5-carboxamide], the IC50 in data set [1] (human, pH 7.4) is not below 30000 nM; in data set [2], 550 nM; in data set [3], 280 nM.

Take `Cc1nn(C23CC4CC(CC(C4)C2)C3)c2cc(F)c(C(=O)NS(C)(=O)=O)cc12` [Example 36, 1-((3s,5s,7s)-adamantan-1-yl)-6-fluoro-3-methyl-N-(methylsulfonyl)-1H-indazole-5-carboxamide]: the IC50 was not below 30000 nM in data set [1] (human, pH 7.4); 3100 nM in data set [2]; 370 nM in data set [3].

For `Cc1nn(C2CCC(C(C)C)CC2)c2cc(F)c(C(=O)NS(C)(=O)=O)cc12` (stereo not drawn) [Example 33, 6-fluoro-1-(4-isopropylcyclohexyl)-3-methyl-N-(methylsulfonyl)-1H-indazole-5-carboxamide], the IC50 in data set [1] is 20000 nM; in data set [2] it was 79 nM; in data set [3], 20 nM.

In the case of `Cc1nn(C2CCN(Cc3cc(C(F)(F)F)cc(Cl)c3F)CC2)c2cc(F)c(C(=O)NS(=O)(=O)C3CC3)cc12` [Example 2, 1-(1-(3-chloro-2-fluoro-5-(trifluoromethyl)benzyl)piperidin-4-yl)-N-(cyclopropylsulfonyl)-6-fluoro-3-methyl-1H-indazole-5-carboxamide 2,2,2-trifluoroacetate], the IC50 in data set [1] amounted to 4900 nM; in data set [2], 86 nM; in data set [3], 13 nM.

In the case of `Cc1nn(C2CCN(Cc3cc(Cl)ccc3C(F)(F)F)CC2)c2cc(F)c(C(=O)NS(=O)(=O)C3CC3)cc12` [Example 8, 1-(1-(5-chloro-2-(trifluoromethyl)benzyl)piperidin-4-yl)-N-(cyclopropylsulfonyl)-6-fluoro-3-methyl-1H-indazole-5-carboxamide], the figures for the IC50 in data set [1], in data set [2] and in data set [3] were 610 nM, 26 nM and 5 nM, respectively.
